Assay results as given in patent US11464796B2, “Nicotinamide mononucleotide derivatives and their uses” (Metro International Biotech, LLC, priority 2015, dated 2022).
Counter-ions that a name gives are not always drawn.

Key:
NAD+ levels in liver = assay: NAD+ level in liver of mice after a single oral dose (LC/MS), ratio to vehicle control; format: in vivo; settings: single oral gavage in PBS, generally 500 mg/ml (in some cases 250 mg/kg or ethanol/PBS/PEG400), fasted male C57/BL6 mice; for ratio of mean NAD+ concentration in treated mice compared to vehicle control mice, 4 hr liver: 4 hr post-dose; for ratio of mean NAD+ concentration in treated mice compared to vehicle control mice, 8 hr liver: 8 hr post-dose; for ratio of mean NAD+ concentration in treated mice compared to vehicle control mice, 24 hr liver: 24 hr post-dose
Description: (§1) As the compounds disclosed herein can act as prodrugs for NMN, their biological activity was assessed in vivo by measuring the ability to elevate NAD+ levels in liver and skeletal muscle. These tissues were selected for pharmacodynamics studies due to their relevance for the treatment of metabolic diseases. In general, C57/BL6 mice were fasted from 16 hours, then administered a […] oral dose of a disclosed compound in PBS buffer by oral gavage. In some cases, the dose was 250 mg/kg or in an alternate vehicle: ethanol/PBS/PEG400 (10/30/60). After dosing, the mice were sacrificed at pre-set time points after dosing (generally 4, 8 and 24 hours). The liver and skeletal tissues were removed and flash frozen. After some period of frozen storage, tissue homogenates were prepared. The level of NAD+ was quantified using LC/MS methods.
(§2) For bioanalysis, a method of standard addition was used to quantify the NAD. Each homogenate was divided and certain aliquots had known concentrations of exogenous NAD added. The NAD present in the original sample was then calculated by linear regression. Data are presented as a ratio of mean NAD concentration in treated mouse tissues to mean NAD concentration in the vehicle control group tissues at the paired time points.
(§3) Mixtures of compound and PBS, pH 7 were formulated ˜1 hour before dosing and remained stirring until dose completion. Residual formulated test materials were stored at −20±5° C. until discarded. Naïve male C57/BL6 mice at ˜25 g at dose initiation, age as appropriate for weight were assigned to dose groups of six animals per dose. Dosing treatments were administered via a single oral gavage dose (PO) The dose volume for each animal (5 mL/kg) was based on the most recent body measurements taken the morning of dosing. Animals were fasted at least 16 hrs prior to dose, with food returned at least 4 hours post dose.
(§4) Liver and skeletal muscle were collected and analyzed for nicotinamide adenine dinucleotide (NAD) at 0, 4, 8, and 24 hours post-dose. For each mouse, the entire liver was removed, rinsed with saline, blotted dry and frozen at −70° C. to store for NAD concentration analysis. Also, the soleus skeletal muscle was removed from the gastrocnemius, rinsed with saline, blotted dry and frozen at −70° C. to store for NAD concentration analysis.
(§5) • 1. Add 5× (tissue wt.*5)mL 0.1M ZnSO4 into all tubes. • 2. Add 5× (tissue wt*5)mL Methanol into all tubes. • 3. Homogenize each sample until completely liquid. • 4. Vortex each sample. Tissue Extraction Procedure • 1. On ice, aliquot 20 μL of standards, control blanks, and matrix blanks into a 96-well plate. • 2. Aliquot 20 μL of sample into sample wells. • 3. Add 1004, of IS in 80:20 Methanol:water into each well, except blanks add 100 μL of blank 80:20 Methanol:Water. • 4. Cover plate and vortex samples. Centrifuge for 10 minutes at 3300 rpm. • 5. Transfer 80 μL of supernatant into a clean 96-well plate. • 6. Add 80 μL of LC-MS water to all wells. • 7. Cover and vortex. The concentration of NAD+ in the tissues was determined by LC/MS. The conditions are as follows:
(§6) The ratio of mean NAD+ concentration in the liver and skeletal tissues of treated mice compared to vehicle control mice are given in Table 5. The data is given for the 4, 8, and 24 hour time points.

[1] = system: NAD+ levels in skeletal muscle; assay: NAD+ level in skeletal muscle of mice after a single oral dose (LC/MS), ratio to vehicle control; format: in vivo; settings: soleus skeletal muscle, single oral gavage in PBS, generally 500 mg/ml (in some cases 250 mg/kg or ethanol/PBS/PEG400), fasted male C57/BL6 mice; for ratio of mean NAD+ concentration in treated mice compared to vehicle control mice, 4 hr skeletal: 4 hr post-dose; for ratio of mean NAD+ concentration in treated mice compared to vehicle control mice, 8 hr skeletal: 8 hr post-dose; for ratio of mean NAD+ concentration in treated mice compared to vehicle control mice, 24 hr skeletal: 24 hr post-dose
Description: as §1, §2, §3, §4, §5, §6

SMILES | ratio of mean NAD+ concentration in treated mice compared to vehicle control mice, 4 hr liver (NAD+ levels in liver) | ratio of mean NAD+ concentration in treated mice compared to vehicle control mice, 8 hr liver (NAD+ levels in liver) | ratio of mean NAD+ concentration in treated mice compared to vehicle control mice, 24 hr liver (NAD+ levels in liver) | ratio of mean NAD+ concentration in treated mice compared to vehicle control mice, 4 hr skeletal [1] | ratio of mean NAD+ concentration in treated mice compared to vehicle control mice, 8 hr skeletal [1] | ratio of mean NAD+ concentration in treated mice compared to vehicle control mice, 24 hr skeletal [1]
NC(=O)c1ccc[n+]([C@@H]2OC(COP3(=O)OCCC(c4cc(F)cc(F)c4)O3)[C@@H](O)[C@H]2O)c1.O=C([O-])C(F)(F)F (stereo partly drawn) [Compound 2, 1-((2R,3R,4S)-5-(((4-(3,5-Difluorophenyl)-2-oxido-1,3,2-dioxaphosphinan-2-yl)oxy)methyl)-3,4-dihydroxytetrahydrofuran-2-yl)-1λ^4-pyridine-3-carboxamide Trifluoroacetate Salt] | 2.0 | 1.6 | 1.8 | 0.9 | 1.0 | 1.4
CC(C)OC(=O)[C@H](C)NP(=O)(OCC1O[C@@H]([n+]2cccc(C(N)=O)c2)[C@H](O)[C@@H]1O)Oc1ccccc1 (stereo partly drawn) [Compound 4, Isopropyl ((((3S,4R,5R)-5-(3-carbamoyl-1λ4-pyridin-1-yl)-3,4-dihydroxytetrahydrofuran-2-yl)methoxy)(phenoxy)phosphoryl)-L-alaninate Trifluoroacetate Salt] | 1.0 | 1.7 | 1.8 | 0.9 | 1.4 | 1.1
CC(C)(C)C(=O)SCCOP(=O)(NCc1ccccc1)OCC1OC([n+]2cccc(C(N)=O)c2)C(O)C1O (stereo not drawn) [Compound 6, 1-(5-((((Benzylamino)(2-(pivaloylthio)ethoxy)phosphoryl)oxy)methyl)-3,4-dihydroxytetrahydrofuran-2-yl)-3-carbamoylpyridin-1-ium Trifluoroacetate Salt] | 4.3 | 6.6 | 3.5 | 1.3 | 1.7 | 2.6
CC(NP(=O)(OCC1O[C@@H]([n+]2cccc(C(N)=O)c2)[C@H](O)[C@@H]1O)Oc1cccc2ccccc12)C(=O)OCc1ccccc1 (stereo partly drawn) [Compound 8, 1-((2R,3R,4S)-5-(((((1-(Benzyloxy)-1-oxopropan-2-yl)amino)(naphthalen-1-yloxy)phosphoryl)oxy)methyl)-3,4-dihydroxytetrahydrofuran-2-yl)-3-carbamoylpyridin-1-ium Trifluoroacetate Salt] | 1.2 | 1.0 | 0.9 | 1.0 | 0.8 | 0.8
CCC(CC)COC(=O)C(C)NP(=O)(OCC1O[C@@H]([n+]2cccc(C(N)=O)c2)[C@H](O)[C@@H]1O)Oc1ccccc1 (stereo partly drawn) [Compound 9, 2-Ethylbutyl ((((3S,4R,5R)-5-(3-carbamoyl-1λ^4-pyridin-1-yl)-3,4-dihydroxytetrahydrofuran-2-yl)methoxy)(phenoxy)phosphoryl)alaninate Trifluoroacetate Salt] | 0.8 | 0.8 | 1.3 | 1.88 | 1.34 | 0.96
CCOP(=O)(OCC)OCC1OC([n+]2cccc(C(N)=O)c2)C(O)C1O (stereo not drawn) [Compound 19, 3-Carbamoyl-1-(5-(((diethoxyphosphoryl)oxy)methyl)-3,4-dihydroxytetrahydrofuran-2-yl)pyridin-1-ium Chloride] | 1 | 1 | 1 | 0.8 | 1.2 | 0.1
CCCCCCCCCCCCCCCOCCCOP(=O)(OC)OCC1OC([n+]2cccc(C(N)=O)c2)C(O)C1O (stereo not drawn) [Compound 21, 3-Carbamoyl-1-(3,4-dihydroxy-5-(((methoxy(3-(pentadecyloxy)propoxy)phosphoryl)oxy)methyl)tetrahydrofuran-2-yl)pyridin-1-ium Trifluoroacetate Salt] | 2.2 | 2.1 | 1.7 | 1.3 | 2.4 | 3.4
